Assay [1] concerns the target T1, recombinant MaltOBP1 (Monochamus alternatus, UniProt A6YIT8). The assay can be described thus: Competitive ligand-binding assay (1-NPN displacement). The conditions noted are these: for binding affinity to MaltOBP1 (in words): fluorescence competitive binding; for Ki: Ki = [IC50]/(1 + [1-NPN]/K1-NPN), read-out: Ki (dissociation constant). As to the method:
(§1) Ligand-binding assays were performed on a HORIBA FluoroMax®-4 Fluorescence spectrophotometer (HORIBA Scientific, United States) with a 1 cm light path quartz cuvette and 5 nm slits for both excitation and emission. The purified MaltOBP1 protein, served in the 1 cm light path quartz cuvette, was titrated with 1 nM 1-N-phenyl naphtylamine (1-NPN, Sigma, Riedstr, Steinheim, Germany) solution in methanol. The fluorescence intensity at the maximum emission wavelength of about 337 nm was linearized using the Scatchard equation ([Sideris et al., 1992]), and then binding affinity for MaltOBP1/1-NPN was calculated.
To assess the binding affinities of ligands to MaltOBP1, a mixture of 1-NPN and MaltOBP1 protein was titrated with 1 μM of each ligand dissolved in methanol. IC50 was obtained by data linearization, and the dissociation constant (Ki) was calculated following the equation: Ki = [IC50]/(1 + [1-NPN]/K1–NPN), where [1-NPN] is the free concentration of 1-NPN and K1–NPN is the dissociation constant of the protein/1-NPN complex ([Campanacci et al., 2001]), which was calculated from the binding curve using GraphPad Prism 5.01 (GraphPad Software, Inc.).

Assay [2] has as its target T1, recombinant MaltOBP1. The assay can be described thus: 1-NPN fluorescence binding assay (Scatchard). The settings on record: fluorescent probe titration, Scatchard linearization; read-out: dissociation constant of MaltOBP1/1-NPN. How it is done: as §1
[3] abbreviates: competitive displacement of 1-NPN from MaltOBP1, ligands in methanol, read-out: IC50.

Where two headings read alike, the source gives them in different places.

T1 sequence (A6YIT8 entry or part of it): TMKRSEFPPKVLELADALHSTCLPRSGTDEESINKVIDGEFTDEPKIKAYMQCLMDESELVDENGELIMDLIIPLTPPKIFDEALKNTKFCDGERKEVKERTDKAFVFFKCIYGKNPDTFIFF

On to `C=CC(=C)CCC=C(C)C` [myrcene], for which the “binding affinity to MaltOBP1 (in words)” value at recombinant MaltOBP1 [1] is given as “no binding affinity”.
`C=C(C)[C@H]1CC=C(C)CC1` [(R)-(+)-limonene]: at recombinant MaltOBP1 [1], the Ki was found to be 12.8 µM and the “binding affinity to MaltOBP1 (in words)” value is “high binding affinity”. In addition, the 50% inhibitory concentration (IC50) on recombinant MaltOBP1 [1] (setting [3]) was found to be 21.7 µM.
Taken in the same sequence, the figures for `CC1=CC(=O)[C@H]2C[C@@H]1C2(C)C` [(−) -verbenone] were 37.4 µM, “high binding affinity” and 63.1 µM.
For the compound `C=C1[C@H]2CC[C@H](C2)C1(C)C` [comphene, Comphene], the “binding affinity to MaltOBP1 (in words)” value at recombinant MaltOBP1 [1] was “no binding affinity”.
On to `c1ccc(Nc2cccc3ccccc23)cc1` [1-NPN, 1-N-phenyl naphtylamine], for which, at recombinant MaltOBP1 [2], the Kd is 3.86 µM.
Turning to (+)-α-Pinene, on recombinant MaltOBP1 [1], the Ki amounted to 18.7 µM and the “binding affinity to MaltOBP1 (in words)” value is “high binding affinity”. Also, the IC50 at recombinant MaltOBP1 [1] (setting [3]) worked out at 31.5 µM.
Regarding `C=C1CC/C=C(\C)CC[C@@H]2[C@@H]1CC2(C)C` [(−)-trans-caryophyllene], at recombinant MaltOBP1 [1], the concentration for half-maximal inhibition (IC50) was 7.01 µM and the “binding affinity to MaltOBP1 (in words)” value was “high binding affinity”.
As for `C=C1CCC2CC1C2(C)C` (stereo not drawn) [β- Pinene], at recombinant MaltOBP1 [1], the half-maximal inhibitory concentration (IC50) was 39.3 µM and the “binding affinity to MaltOBP1 (in words)” value is “high binding affinity”.
For `CC1=CCC2C(C1)C2(C)C` (single isomer, unassigned; (+)) [(+)-3-carene], on recombinant MaltOBP1 [1], the “binding affinity to MaltOBP1 (in words)” value was “no binding affinity”.
